From patent US10913720B2, “Benzyloxypyridylcyclopropanecarboxylic acids, pharmaceutical compositions and uses thereof” (Boehringer Ingelheim International GmbH, priority 2017, dated 2021)
pEC50: −log10 of the molar value.

Target: human GPR40 receptor (Homo sapiens, UniProt O14842)
Experiment: IP1 accumulation measurements using the IPOne assay system
Type: cell-based
Settings: 1321N1 cells stably expressing human GPR40; 1 h stimulation at 37° C.
Experimental: IP1 accumulation measurements using the IPOne assay system—1321N1 cells stably expressing human GPR40 receptor (Euroscreen, Belgium) are seeded 24 h before the assay in white 384-well plates in culture medium containing 10% FCS, 1% Na-Pyruvate and 400 μg/mL G418. IP1 is assayed according to the manufacturer's description (Cisbio Bioassays, France). In brief, the assay is started by substitution of the culture medium by stimulation buffer (Hepes 10 mM, CaCl2) 1 mM, MgCl2 0.5 mM, KCl 4.2 mM, NaCl 146 mM, glucose 5.5 mM and LiCl 50 mM, pH 7.4). Cells are stimulated for 1 h at 37° C., 5% CO2 by addition of the compounds that are diluted in stimulation buffer containing LiCl. Assays are stopped by adding HTRF-conjugates (IP1-d2 and Anti-IP1 cryptate Tb) and lysis buffer, provided by the manufacturer. After an incubation time of 1 h at room temperature plates are measured using an EnVision™, Perkin Elmer. The obtained fluorescence ratios at 665/615 […] are then used to calculate the pEC50 values using Assay Explorer 3.3 Software (Accelrys, Inc.) by interpolation using an IP1 reference curve and subsequent sigmoidal curve fitting allowing for a variable hill slope.

Chain of human GPR40 receptor (O14842 whole entry): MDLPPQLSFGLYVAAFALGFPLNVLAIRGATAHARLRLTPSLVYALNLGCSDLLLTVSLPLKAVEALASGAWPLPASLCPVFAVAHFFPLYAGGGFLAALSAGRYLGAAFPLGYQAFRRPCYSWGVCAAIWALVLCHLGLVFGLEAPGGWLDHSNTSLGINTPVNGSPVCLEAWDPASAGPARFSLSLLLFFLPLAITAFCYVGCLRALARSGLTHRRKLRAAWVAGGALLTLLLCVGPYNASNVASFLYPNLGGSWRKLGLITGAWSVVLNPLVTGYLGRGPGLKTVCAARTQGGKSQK

Row | Compound | pEC50
1 | COc1cc(C)c(-c2cccc(COc3ccc([C@H]4C[C@@H]4C(=O)O)nc3)c2)c(C)c1 [Example 14, (1S,2S)-2-[5-(4′-Methoxy-2′,6′-dimethyl-biphenyl-3-ylmethoxy)-pyridin-2-yl]-cyclopropanecarboxylic Acid] | 7.57
2 | Cc1cc(-c2cnccn2)cc(C)c1-c1ccc(F)c(COc2ccc([C@H]3C[C@@H]3C(=O)O)nc2)c1 [Example 19, (1S,2S)-2-[5-(4-Fluoro-2′,6′-dimethyl-4′-pyrazin-2-yl-biphenyl-3-ylmethoxy)-pyridin-2-yl]-cyclopropanecarboxylic Acid] | 8.15
3 | COc1ccc(-c2ccc(-c3cc(COc4ccc([C@H]5C[C@@H]5C(=O)O)nc4)ccc3C(F)(F)F)cc2)nn1 [Example 29, (1S,2S)-2-{5-[4′-(6-Methoxy-pyridazin-3-yl)-6-trifluoromethyl-biphenyl-3-ylmethoxy]-pyridin-2-yl}-cyclopropanecarboxylic Acid] | 8.00
4 | CCc1cccc(CC)c1-c1cccc(COc2ccc([C@H]3C[C@@H]3C(=O)O)nc2)c1 [Example 9, (1S,2S)-2-[5-(2′,6′-Diethyl-biphenyl-3-ylmethoxy)-pyridin-2-yl]-cyclopropane-carboxylic Acid] | 7.21
5 | Cc1cc(OCC2CCCO2)cc(C)c1-c1cccc(COc2ccc([C@H]3C[C@@H]3C(=O)O)nc2)c1 (stereo partly drawn) [Example 11, (1S,2S)-2-{5-[2′,6′-Dimethyl-4′-(tetrahydro-furan-2-ylmethoxy)-biphenyl-3-ylmethoxy]-pyridin-2-yl}-cyclopropanecarboxylic Acid] | 7.49
6 | COc1cc(-c2cc(C)c(-c3ccc(F)c(COc4ccc([C@H]5C[C@@H]5C(=O)O)nc4)c3)c(C)c2)ccn1 [Example 20, (1S,2S)-2-{5-[4-Fluoro-4′-(2-methoxy-pyridin-4-yl)-2′,6′-dimethyl-biphenyl-3-ylmethoxy]-pyridin-2-yl}-cyclopropanecarboxylic Acid] | 8.30
7 | Cc1cc(C(=O)O)cc(C)c1-c1ccc(F)c(COc2ccc([C@H]3C[C@@H]3C(=O)O)nc2)c1 [Example 24, (1S,2S)-3′-[6-(−2-Carboxy-cyclopropyl)-pyridin-3-yloxymethyl]-4′-fluoro-2,6-dimethyl-biphenyl-4-carboxylic Acid] | 5.67
8 | COc1cc(-c2cc(C)c(-c3cccc(COc4ccc([C@H]5C[C@@H]5C(=O)O)nc4)c3)c(C)c2)ccn1 [Example 8, (1S,2S)-2-{5-[4′-(2-Methoxy-pyridin-4-yl)-2′,6′-dimethyl-biphenyl-3-ylmethoxy]-pyridin-2-yl}-cyclopropanecarboxylic Acid] | 8.22
9 | Cc1cc(-c2ccnn2C)cc(C)c1-c1ccc(F)c(COc2ccc([C@H]3C[C@@H]3C(=O)O)nc2)c1 [Example 21, (1S,2S)-2-{5-[4-Fluoro-2′,6′-dimethyl-4′-(2-methyl-2H-pyrazol-3-yl)-biphenyl-3-ylmethoxy]-pyridin-2-yl}-cyclopropanecarboxylic Acid] | 8.22
10 | Cc1cc(OCC2CCOCC2)cc(C)c1-c1cccc(COc2ccc([C@H]3C[C@@H]3C(=O)O)nc2)c1 [Example 10, (1S,2S)-2-{5-[2′,6′-Dimethyl-4′-(tetrahydro-pyran-4-ylmethoxy)-biphenyl-3-ylmethoxy]-pyridin-2-yl}-cyclopropanecarboxylic Acid] | 7.64
11 | COc1cnc(-c2ccc(-c3cc(COc4ccc([C@H]5C[C@@H]5C(=O)O)nc4)ccc3C(F)(F)F)cc2)nc1 [Example 28, (1S,2S)-2-{5-[4′-(5-Methoxy-pyrimidin-2-yl)-6-trifluoromethyl-biphenyl-3-ylmethoxy]-pyridin-2-yl}-cyclopropanecarboxylic Acid] | 8.40
12 | Cc1cc(-c2ccnn2C)cc(C)c1-c1cccc(COc2ccc([C@H]3C[C@@H]3C(=O)O)nc2)c1 [Example 7, (1S,2S)-2-{5-[2′,6′-Dimethyl-4′-(2-methyl-2H-pyrazol-3-yl)-biphenyl-3-ylmethoxy]-pyridin-2-yl}-cyclopropanecarboxylic Acid] | 7.96
13 | Cc1cnc(-c2cc(C)c(-c3cccc(COc4ccc([C@H]5C[C@@H]5C(=O)O)nc4)c3)c(C)c2)nc1 [Example 2, (1S,2S)-2-{5-[2′,6′-Dimethyl-4′-(5-methyl-pyrimidin-2-yl)-biphenyl-3-ylmethoxy]-pyridin-2-yl}-cyclopropanecarboxylic Acid] | 8.22
14 | Cc1cc(OCC(C)(C)O)cc(C)c1-c1ccc(F)c(COc2ccc([C@H]3C[C@@H]3C(=O)O)nc2)c1 [Example 25, (1S,2S)-2-{5-[4-Fluoro-4′-(2-hydroxy-2-methyl-propoxy)-2′,6′-dimethyl-biphenyl-3-ylmethoxy]-pyridin-2-yl}-cyclopropanecarboxylic Acid] | 7.44
15 | Cc1cc(OC2CCOCC2)cc(C)c1-c1cccc(COc2ccc([C@H]3C[C@@H]3C(=O)O)nc2)c1 [Example 13, (1S,2S)-2-{5-[2′,6′-Dimethyl-4′-(tetrahydro-pyran-4-yloxy)-biphenyl-3-ylmethoxy]-pyridin-2-yl}-cyclopropanecarboxylic Acid] | 7.54
16 | Cc1cc(-c2nnn(CC(C)(C)O)n2)cc(C)c1-c1cccc(COc2ccc([C@H]3C[C@@H]3C(=O)O)nc2)c1 [Example 6, (1S,2S)-2-(5-{4′-[2-(2-Hydroxy-2-methyl-propyl)-2H-tetrazol-5-yl]-2′,6′-dimethyl-biphenyl-3-ylmethoxy}-pyridin-2-yl)-cyclopropanecarboxylic Acid] | 8.05
17 | Cc1cc(OCC2(C)COC2)cc(C)c1-c1ccc(F)c(COc2ccc([C@H]3C[C@@H]3C(=O)O)nc2)c1 [Example 23, (1S,2S)-2-{5-[4-Fluoro-2′,6′-dimethyl-4′-(3-methyl-oxetan-3-ylmethoxy)-biphenyl-3-ylmethoxy]-pyridin-2-yl}-cyclopropanecarboxylic Acid] | 7.62
18 | Cc1cc(-c2nnn(C)n2)cc(C)c1-c1ccc(F)c(COc2ccc([C@H]3C[C@@H]3C(=O)O)nc2)c1 [Example 17, (1S,2S)-2-{5-[4-Fluoro-2′,6′-dimethyl-4′-(2-methyl-2H-tetrazol-5-yl)-biphenyl-3-ylmethoxy]-pyridin-2-yl}-cyclopropanecarboxylic Acid] | 8.52
19 | Cc1cc(-c2nnn(CC(C)(C)O)n2)cc(C)c1-c1ccc(F)c(COc2ccc([C@H]3C[C@@H]3C(=O)O)nc2)c1 [Example 18, (1S,2S)-2-(5-{4-Fluoro-4′-[2-(2-hydroxy-2-methyl-propyl)-2H-tetrazol-5-yl]-2′,6′-dimethyl-biphenyl-3-ylmethoxy}-pyridin-2-yl)-cyclopropanecarboxylic Acid] | 8.22
20 | Cc1cc(OCCC(C)(C)O)cc(C)c1-c1cc(COc2ccc([C@H]3C[C@@H]3C(=O)O)nc2)c(F)cc1F [Example 26, (1S,2S)-2-{5-[4,6-Difluoro-4′-(3-hydroxy-3-methyl-butoxy)-2′,6′-dimethyl-biphenyl-3-ylmethoxy]-pyridin-2-yl}-cyclopropanecarboxylic Acid] | 7.92
21 | Cc1cc(-c2cnccn2)cc(C)c1-c1cccc(COc2ccc([C@H]3C[C@@H]3C(=O)O)nc2)c1 [Example 5, (1S,2S)-2-[5-(2′,6′-Dimethyl-4′-pyrazin-2-yl-biphenyl-3-ylmethoxy)-pyridin-2-yl]-cyclopropanecarboxylic Acid] | 7.96
22 | Cc1cc(O[C@H]2CCOC2)cc(C)c1-c1cccc(COc2ccc([C@H]3C[C@@H]3C(=O)O)nc2)c1 [Example 12, (1S,2S)-2-(5-{2′,6′-Dimethyl-4′-[(S)-(tetrahydrofuran-3-yl)oxy]-biphenyl-3-ylmethoxy}-pyridin-2-yl)-cyclopropanecarboxylic Acid] | 7.57
23 | Cc1cnc(-c2cc(C)c(-c3ccc(F)c(COc4ccc([C@H]5C[C@@H]5C(=O)O)nc4)c3)c(C)c2)nc1 [Example 22, (1S,2S)-2-{5-[4-Fluoro-2′,6′-dimethyl-4′-(5-methyl-pyrimidin-2-yl)-biphenyl-3-ylmethoxy]-pyridin-2-yl}-cyclopropanecarboxylic Acid] | 8.40
24 | O=C(O)[C@H]1C[C@@H]1c1ccc(OCc2cccc(-c3c(Cl)cccc3Cl)c2)cn1 [Example 15, (1S,2S)-2-[5-(2′,6′-Dichloro-biphenyl-3-ylmethoxy)-pyridin-2-yl]-cyclopropane-carboxylic Acid] | 7.62
25 | Cc1cc(-c2ccc(=O)n(C)c2)cc(C)c1-c1cccc(COc2ccc([C@H]3C[C@@H]3C(=O)O)nc2)c1 [Example 4, (1S,2S)-2-{5-[2′,6′-Dimethyl-4′-(1-methyl-6-oxo-1,6-dihydro-pyridin-3-yl)-biphenyl-3-ylmethoxy]-pyridin-2-yl}-cyclopropanecarboxylic Acid] | 7.82
26 | Cc1cc(OCCCS(C)(=O)=O)cc(C)c1-c1cccc(COc2ccc([C@H]3C[C@@H]3C(=O)O)nc2)c1 [Example 16, (1S,2S)-2-{5-[4′-(3-Methanesulfonyl-propoxy)-2′,6′-dimethyl-biphenyl-3-ylmethoxy]-pyridin-2-yl}-cyclopropanecarboxylic Acid] | 7.43
27 | CC(C)(O)CCOc1ccc(-c2cc(COc3ccc([C@H]4C[C@@H]4C(=O)O)nc3)ccc2C(F)(F)F)cc1 [Example 30, (1S,2S)-2-{5-[4′-(3-Hydroxy-3-methyl-butoxy)-6-trifluoromethyl-biphenyl-3-ylmethoxy]-pyridin-2-yl}-cyclopropanecarboxylic Acid] | 7.92
